Assay [1] deals with iPSC^USP48MV organoids. Description: ACTH secretion ELISA, iPSCUSP48 organoids. It counts as cell-based, human. To be noted: text: iPSCUSP48MI; FIG. 7G: iPSCUSP48MV; 500 nM, 48 h. As to the method: (§1) Sonic Hedgehog (SHH) was withdrawn from the organoid growth media 16 hours prior to treatment. The experimental treatment groups included: vehicle (Veh), mifepristone (500 nM, Selleckchem S2606), GANT61 (5 μM, Stemcell Technologies 73692), ketoconazole (Keto, 10 μM, Selleckchem S1353), pasireotide (Pas, 100 nM, Target Mol TP2207-SB001), octreotide (Oct, 100 nM, Selleckchem P1017), mifepristone plus GANT61, mifepristone plus Keto, mifepristone plus Pas, relacorilant (500 nM, Corcept Therapeutics CORT125134), relacorilant plus Pas, relacorilant plus Oct, or dexamethasone (Dexa, 100 nM, SIGMA S4902). In the combination treatments, cultures were pretreated with the GANT61, Keto, Pas or Oct for 2 hours prior to treatment with mifepristone or Rela. PitNET tissue derived organoids hPITO36, hPITO37, hPITO38, hPITO39, and hPITO40 were treated with the following experimental conditions: Vehicle (1), pasireotide (2), relacorilant (3), relacorilant & pasireotide (4), mifepristone (5), mifepristone & pasireotide (6). The IC50 values used for each hPITO line for each drug were determined based on dose responses (FIG. 12). All organoid cultures were treated for 48 hours prior to analysis.
(§2) Organoid conditioned media was collected and ACTH secretion using an ELISA according to the manufacturer's protocol (Novus Biologicals Human ACTH ELISA Kit NBP2-66401). The optical density was measured at a wavelength of 450 nm, and ACTH concentration (pg/mL) was interpolated using a standard curve with a 4-parameter logistic regression analysis using GraphPad Prism (v9.3.1).
For orientation: ELISA stands for enzyme-linked immunosorbent assay.

The subject of assay [2] is iPSC^ctrl organoids. Description: ACTH secretion ELISA, iPSCctrl organoids. The assay is classed as cell-based, human. The conditions noted are these: 500 nM, 48 h, FIG. 6G. On the procedure: as §1, §2
Assay [3] deals with PitNET organoids. The assay is described as follows: ACTH secretion from PitNET (summary). The assay is classed as cell-based, human. On the procedure:
as §1, with “PitNET tissue derived organoids hPITO36, hPITO37, hPITO38, hPITO39, and hPITO40 were treated with the following experimental conditions: Vehicle (1), pasireotide (2), relacorilant (3), relacorilant & pasireotide (4), mifepristone (5), mifepristone & pasireotide (6).” left out, “All organoid cultures were treated for 48 hours prior to analysis.” left out
as §2

Assay [4] has as its system glucocorticoid receptor (GR). The conditions noted are these: cited from earlier work.
Assay [5] concerns androgen receptor. To be noted: cited from earlier work.
Assay [6] has as its system estrogen receptor. To be noted: cited from earlier work.
Assay [7] deals with ovarian cancer cell lines. To be noted: in vitro; cited from earlier work.
For assay [8], the system named is pancreatic cancer cell lines. The conditions noted are these: in vitro; cited from earlier work.

The values that follow come from patent publication US20260325504A1, “Genetically Engineered Human Pituitary Corticotroph Tumor Organoids Exhibit Divergent Responses to Selective Glucocorticoid Receptor Modulators” (Corcept Therapeutics Incorporated, priority 2022, published 2026).

“Also recorded” adds a separate entry of the source. Read-outs that look alike come from different tables or passages of the source.

As for `CC#C[C@]1(O)CC[C@H]2[C@@H]3CCC4=CC(=O)CCC4=C3[C@@H](c3ccc(N(C)C)cc3)C[C@@]21C` [mifepristone, 11β-(4-dimethylaminophenyl)-17ß-hydroxy-17α-(1-propynyl)-estra-4,9-dien-3-one], the “magnitude of ACTH secretion, mifepristone vs relacorilant” value in assay [1] and in assay [2] was “significantly greater than the effect of relacorilant” in each case. Also, the “ACTH secretion from PitNET organoids” value in assay [3] is “preferentially induced the expression of SSTR2, ACTH secretion and PitNET organoid proliferation; also recorded: significantly increased ACTH secretion from PitNET both in vivo and in vitro”. The “binding to the glucocorticoid receptor” value was “competes with cortisol binding at the GR” in assay [4] and “typically with high affinity” in assay [4] (listed as Mifepristone).

For the compound `Cn1cc(S(=O)(=O)N2CCC3=Cc4c(cnn4-c4ccc(F)cc4)C[C@]3(C(=O)c3cc(C(F)(F)F)ccn3)C2)cn1` [relacorilant, (R)-(1-(4-fluorophenyl)-6-((1-methyl-1H-pyrazol-4-yl)sulfonyl)-4,4a,5,6,7,8-hexahydro-1H-pyrazolo[3,4-g]isoquinolin-4a-yl) (4-(trifluoromethyl)pyridin-2-yl) methanone], the “binding to the androgen receptor” value in assay [5] is “no detectable binding”. Moreover, the “binding to the estrogen receptor” value in assay [6] is “no detectable binding”. Besides, the “ACTH secretion from PitNET organoids” value in assay [3] is on record as “without significant stimulation of ACTH secretion; also recorded: without an increase in ACTH secretion”. The apoptosis result in assay [7] and in assay [8] was “induces apoptosis” in each case.
